Literature values in patent US7332520B2, “Fused indoles as dipeptidyl peptidase inhibitors for the treatment or prevention of diabetes” (Merck & Co., Inc., priority 2003, dated 2008).

Assays:
hematopoiesis = conditions: mouse, cyclophosphamide-induced neutropenia
DP-IV = biological target: T1, DP-IV (Homo sapiens, UniProt P27487)
T1 construct: GRF is rapidly degraded in plasma to GRF[3-44]
T1 sequence (P27487 39-766 limits assumed): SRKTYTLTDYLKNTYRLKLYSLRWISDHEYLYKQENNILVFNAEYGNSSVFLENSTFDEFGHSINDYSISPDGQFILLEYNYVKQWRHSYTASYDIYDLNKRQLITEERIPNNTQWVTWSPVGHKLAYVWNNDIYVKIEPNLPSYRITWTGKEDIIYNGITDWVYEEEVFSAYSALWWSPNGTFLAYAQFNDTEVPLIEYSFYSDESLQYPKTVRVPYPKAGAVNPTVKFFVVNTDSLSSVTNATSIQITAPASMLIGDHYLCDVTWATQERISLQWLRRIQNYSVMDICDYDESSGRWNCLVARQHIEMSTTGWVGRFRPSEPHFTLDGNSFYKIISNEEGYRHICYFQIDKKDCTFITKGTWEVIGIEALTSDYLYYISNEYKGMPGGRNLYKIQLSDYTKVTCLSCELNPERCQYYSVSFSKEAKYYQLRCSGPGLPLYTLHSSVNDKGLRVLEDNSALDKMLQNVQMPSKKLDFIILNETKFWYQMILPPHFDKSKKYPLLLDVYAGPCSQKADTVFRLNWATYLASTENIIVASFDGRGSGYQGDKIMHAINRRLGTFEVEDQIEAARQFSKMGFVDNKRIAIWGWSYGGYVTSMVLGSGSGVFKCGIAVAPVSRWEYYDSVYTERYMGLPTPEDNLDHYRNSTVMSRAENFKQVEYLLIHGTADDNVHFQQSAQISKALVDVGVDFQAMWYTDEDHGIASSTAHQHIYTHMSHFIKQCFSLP

| Compound | hematopoiesis (hematopoiesis) | degradation of GRF in plasma to GRF[3-44] (DP-IV) |
| --- | --- | --- |
| CC(C)[C@H](N)C(=O)N1CCC[C@H]1B(O)O [Val-Boro-Pro] | stimulated hematopoiesis | – |
| CC[C@H](C)[C@H](N)C(=O)N1CCC[C@H]1C(=O)N[C@H](C(=O)O)[C@@H](C)CC [diprotin A] | – | prevented |
